Experimental data published in ChEMBL document CHEMBL1201862, “PubChem BioAssay data set” (2004).
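Values below derive from 48-hour exposures of cells grown in 96-well plates, with endpoints linearly interpolated between the two concentrations bracketing the appropriate inhibition level. GI50: concentration for 50% inhibition of growth.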 Active and inactive are the calls of the source. Rule as the data show it: active = GI50 up to about 1.1 µM and inactive = higher.

Columns and labels:
Assay in all cases: growth of human tumour cells (NCI), 48 h
[1] = system: DMS-114
[2] = system: HOP-18
[3] = system: LXFL 529
[4] = system: M19-MEL
[5] = system: SNB-78
[6] = system: RXF 631
[7] = system: XF498
[8] = system: DLD-1

Measured: GI50

COc1ccccc1C1C(C(=O)O)=C(CO)Oc2cc3c(cc21)OCO3 (stereo unspecified)
inactive: [1] > 100 µM | [2] > 100 µM | [3] > 100 µM | [4] > 100 µM | [5] > 100 µM

CCCOC(=O)CCC(NC(=O)c1ccc(Nc2nc3ccccc3nc2-c2cccs2)cc1)C(=O)OCCC (stereo unspecified)
inactive: [2] > 100 µM | [3] > 100 µM | [4] > 100 µM | [6] > 100 µM | [5] > 100 µM | [7] 79.8 µM

Cc1cccc2c1Sc1ccccc1C2NC(=O)CN(C)C (stereo unspecified)
inactive: [1] > 100 µM | [3] > 100 µM | [4] 47.4 µM | [5] > 100 µM | [7] > 100 µM

O=Cc1c(Br)[nH]c2ccccc12
inactive: [8] > 100 µM | [2] 61.1 µM | [4] > 79.6 µM | [5] > 67 µM | [7] > 100 µM
